We go through five molecules from patent US11780893B2, “Kv1.3 blockers” (Zealand Pharma A/S, priority 2019, dated 2023).

Like-named read-outs stand apart in the source and are kept apart here. Bridge positions count the residues as written; N and C are the ends. Square brackets hold non-standard residues; d marks the D form. Peptide text beside a SMILES is read from it. Nle = CCCC[C@H](N)C(=O)O

The target in assay [1] is T1, human Kv1.3 voltage-gated K+ channel (Homo sapiens, UniProt P22001).
T1 construct: host or cells: CHO-DUKX
The experiment in a line: cell-based. The note with it: inhibition of thallium flux, CHO-DUKX cells with human Kv1.3; read-out: IC50.

For assay [2], the system named is Human peripheral blood mononuclear cells (PBMCs). The experiment in a line: IL-2 release from anti-CD3 stimulated human PBMCs (Example 4b). Type of assay: cell-based. The note with it: geometric mean, at least 6 replicates, read-out: anti-CD3 PBMC/IL-2 IC50. As to the method:
Human peripheral blood mononuclear cells (PBMCs) were used to assess the effects of Kv1.3 blockers on T-cell activation as determined by IL-2 release after stimulation with anti-CD3.
Human PBMCs were obtained from Precision for Medicine (Frederick, Md.). Cells from 5 donors were used. Plate-bound anti-CD3 was used to stimulate bulk T cells in the PBMC preparations. Briefly, 96-well plates were coated with anti-CD3 antibody for app. 16 hours at 5° C., using 50 μl of a 1 μg/ml anti-CD3 solution diluted in PBS. Thereafter the plates were washed twice.
Kv1.3 blockers were subsequently diluted in medium (RPMI 1640 with Glutamax-I containing, 10% v/v Fetal Bovine Serum, 1% v/v penicillin-streptomycin Solution) and added in a volume of 50 μl. The compounds indicated in Table 4b were used at concentrations ranging from […] to 1000 nM (half log dilutions, starting concentrations varying).
Finally, 50.000 PBMCs in the same medium were added to each well in a volume of 50 μl, giving a final volume of 100 μl per well. The plates were incubated for 20-24 hours in a 37° C./5% CO2 incubator. After centrifugation of the plates, 25 μl supernatant was transferred to IL-2 detection plates (MSD Human IL-2 Tissue Culture Kit, cat #K151AHB-2) and IL-2 was measures as described by the manufacturer (Meso Scale Discovery, Rockville, Md., USA).
Results are shown in Table 4b as geometric mean of IC50 values obtained from anti-CD3 stimulated human PBMC assays. All values derive from at least 6 replicates.

The target of another assay is T2, Kv1.1 (Homo sapiens, UniProt Q09470).
T2 construct: expressed in transfected cells; host or cells: Chinese Hamster Ovary (CHO)
The experiment in a line: cell-based. The conditions noted are these: for IC50: CHO cells, whole-cell patch clamp, read-out: Potency IC50 (nM) Kv1.1; for Selectivity Kv1.1/Kv1.3: ratio IC50[Kv1.1]/IC50[Kv1.3]. Background: The patch-clamp technique gives a direct electrical read-out from membranes.

In a further assay the target is Rat whole blood (Rattus norvegicus, UniProt P15384).
Another assay addresses T3, Kv1.2 (Homo sapiens, UniProt P16389).
T3 construct: expressed in transfected cells; host or cells: Chinese Hamster Ovary (CHO)
In words: cell-based. The note with it: for IC50: CHO cells, whole-cell patch clamp, read-out: Potency IC50 (nM) Kv1.2.

The target of another assay is T4, Kv1.3 (Homo sapiens, UniProt P22001).
T4 construct: expressed in transfected cells; host or cells: Chinese Hamster Ovary (CHO)
The experiment in a line: cell-based. The note with it: CHO cells, whole-cell patch clamp; read-out: Potency IC50 (nM) Kv1.3.

The target in another assay is T5, Kv1.6 (Homo sapiens, UniProt P17658).
T5 construct: expressed in transfected cells; host or cells: Chinese Hamster Ovary (CHO)
The experiment in a line: cell-based. The conditions noted are these: for IC50: CHO cells, whole-cell patch clamp, read-out: Potency IC50 (nM) Kv1.6; for Selectivity Kv1.6/Kv1.3: ratio IC50[Kv1.6]/IC50[Kv1.3].

In assay [3] the test system is Human peripheral blood mononuclear cells (PBMCs). The experiment in a line: IL-2 release from anti-CD3 stimulated human PBMCs (Example 4a). It is filed as cell-based. The conditions noted are these: geometric mean, at least 4 replicates, read-out: anti-CD3 PBMC/IL-2 IC50. As to the method:
Human peripheral blood mononuclear cells (PBMCs) were used to assess the effects of Kv1.3 blockers on T-cell activation as determined by IL-2 (cytokine) release after stimulation with anti-CD3.
Human PBMCs were obtained from Precision for Medicine (Frederick, Md.). Cells from 5 donors were used. Plate-bound anti-CD3 was used to stimulate bulk T cells in the PBMC preparations. Briefly, 96-well plates were coated with anti-CD3 antibody for 2 hrs at 37° C., using 50 μL of a 0.5 μg/mL anti-CD3 solution diluted in 1×PBS. Thereafter the plates were washed twice.
Finally, 1×10^5 PBMCs were added to each well in a volume of 100 μL, giving a final volume of 200 μL per well. The plates were incubated for 20-24 hours in a 37° C./5% CO2 incubator. After centrifugation of the plates, 25 μl supernatant was transferred to IL-2 detection plates (MSD Human IL-2 Tissue Culture Kit, cat #K151AHB-2) and IL-2 was measures as described by the manufacturer (Meso Scale Discovery, Rockville, Md., USA).
Results are shown in Table 4a as geometric mean of IC50 values obtained from anti-CD3 stimulated human PBMC assays. All values derive from at least 4 replicates.

Assay [4] has as its system delayed-type hypersensitivity (DTH) ear swelling response. Type of assay: in vivo, rat. The conditions noted are these: CsA 10 mg/kg per os, +/- SD.

T4 sequence (P22001 whole entry): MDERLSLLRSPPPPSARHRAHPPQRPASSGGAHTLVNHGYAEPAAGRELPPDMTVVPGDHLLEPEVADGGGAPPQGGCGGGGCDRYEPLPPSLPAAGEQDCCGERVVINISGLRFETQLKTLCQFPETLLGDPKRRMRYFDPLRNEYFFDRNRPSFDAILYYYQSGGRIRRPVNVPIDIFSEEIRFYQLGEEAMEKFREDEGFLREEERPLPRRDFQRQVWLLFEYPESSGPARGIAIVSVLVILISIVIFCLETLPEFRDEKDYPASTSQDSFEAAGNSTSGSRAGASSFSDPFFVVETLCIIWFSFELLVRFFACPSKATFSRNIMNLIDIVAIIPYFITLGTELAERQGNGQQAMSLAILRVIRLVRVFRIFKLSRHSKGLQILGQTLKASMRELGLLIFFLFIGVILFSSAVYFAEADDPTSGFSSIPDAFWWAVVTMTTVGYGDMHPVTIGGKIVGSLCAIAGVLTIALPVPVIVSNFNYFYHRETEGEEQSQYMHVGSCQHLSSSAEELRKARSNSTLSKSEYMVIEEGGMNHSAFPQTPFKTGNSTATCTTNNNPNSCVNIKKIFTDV
T1 sequence (P22001 whole entry): as above
Sequence of Rat whole blood (P15384 whole entry): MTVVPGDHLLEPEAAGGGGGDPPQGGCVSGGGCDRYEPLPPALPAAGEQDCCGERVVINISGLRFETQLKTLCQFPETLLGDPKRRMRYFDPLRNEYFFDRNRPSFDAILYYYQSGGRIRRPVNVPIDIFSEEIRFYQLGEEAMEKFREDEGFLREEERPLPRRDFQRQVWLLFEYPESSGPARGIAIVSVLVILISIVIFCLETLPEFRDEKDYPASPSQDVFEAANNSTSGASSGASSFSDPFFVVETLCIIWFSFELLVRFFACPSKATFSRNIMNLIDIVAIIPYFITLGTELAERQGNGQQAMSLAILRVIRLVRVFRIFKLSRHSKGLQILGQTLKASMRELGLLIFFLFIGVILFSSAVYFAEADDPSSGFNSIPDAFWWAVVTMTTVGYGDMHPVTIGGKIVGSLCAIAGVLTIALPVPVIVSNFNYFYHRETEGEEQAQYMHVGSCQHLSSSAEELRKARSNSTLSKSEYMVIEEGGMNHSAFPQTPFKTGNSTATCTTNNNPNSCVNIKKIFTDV
T3 sequence (P16389 whole entry): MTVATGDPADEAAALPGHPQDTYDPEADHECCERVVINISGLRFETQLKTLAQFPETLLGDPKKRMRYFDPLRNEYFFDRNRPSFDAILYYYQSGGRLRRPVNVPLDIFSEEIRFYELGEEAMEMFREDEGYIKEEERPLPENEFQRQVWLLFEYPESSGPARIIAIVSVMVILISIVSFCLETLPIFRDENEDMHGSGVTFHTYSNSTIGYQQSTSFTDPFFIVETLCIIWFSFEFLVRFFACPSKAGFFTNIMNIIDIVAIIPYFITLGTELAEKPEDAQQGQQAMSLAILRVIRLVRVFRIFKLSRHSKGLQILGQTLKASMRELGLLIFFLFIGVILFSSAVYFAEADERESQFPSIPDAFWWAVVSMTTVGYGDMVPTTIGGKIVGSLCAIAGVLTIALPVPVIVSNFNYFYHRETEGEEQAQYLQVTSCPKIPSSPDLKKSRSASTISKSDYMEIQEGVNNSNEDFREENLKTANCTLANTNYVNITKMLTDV
T2 sequence (Q09470 whole entry): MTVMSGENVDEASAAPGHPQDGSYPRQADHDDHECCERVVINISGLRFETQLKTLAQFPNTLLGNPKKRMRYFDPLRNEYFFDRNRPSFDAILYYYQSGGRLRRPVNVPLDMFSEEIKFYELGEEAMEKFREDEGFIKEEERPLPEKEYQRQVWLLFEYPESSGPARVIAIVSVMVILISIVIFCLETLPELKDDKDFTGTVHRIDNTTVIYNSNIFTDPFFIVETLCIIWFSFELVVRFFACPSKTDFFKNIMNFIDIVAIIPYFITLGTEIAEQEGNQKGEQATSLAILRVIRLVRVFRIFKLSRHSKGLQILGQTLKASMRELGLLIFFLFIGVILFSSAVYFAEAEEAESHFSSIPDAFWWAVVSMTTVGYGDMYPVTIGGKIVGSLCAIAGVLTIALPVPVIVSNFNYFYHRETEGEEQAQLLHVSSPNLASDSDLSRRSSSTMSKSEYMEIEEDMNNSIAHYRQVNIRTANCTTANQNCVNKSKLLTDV
T5 sequence (P17658 whole entry): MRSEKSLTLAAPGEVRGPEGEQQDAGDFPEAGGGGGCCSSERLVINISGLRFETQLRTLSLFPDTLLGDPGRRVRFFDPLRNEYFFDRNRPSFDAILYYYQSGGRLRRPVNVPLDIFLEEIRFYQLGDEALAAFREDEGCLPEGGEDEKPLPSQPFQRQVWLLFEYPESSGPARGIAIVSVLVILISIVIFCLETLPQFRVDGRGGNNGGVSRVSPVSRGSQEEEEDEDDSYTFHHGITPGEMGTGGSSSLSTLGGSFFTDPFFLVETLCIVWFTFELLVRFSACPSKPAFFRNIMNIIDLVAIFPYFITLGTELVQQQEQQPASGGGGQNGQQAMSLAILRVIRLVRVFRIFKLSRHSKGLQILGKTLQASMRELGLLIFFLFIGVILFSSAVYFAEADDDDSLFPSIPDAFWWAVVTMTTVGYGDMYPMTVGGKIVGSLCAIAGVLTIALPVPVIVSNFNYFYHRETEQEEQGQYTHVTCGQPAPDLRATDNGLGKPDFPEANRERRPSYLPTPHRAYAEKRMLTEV

In the case of “H-NMDMRCSASVECKQKCLKAIGSIFGKCMNKKCKCYPRRRTA-NH2 (disulfide 6-27, 12-32, 16-34) [Compound 23]”, the IC50 in assay [1] was 0.055 nM; in [2] it was 0.06 nM; on Kv1.1, 626 nM; against Rat whole blood it was at most 1 nM; at Kv1.2 it was 28 nM; at Kv1.3, 0.15 nM. Also, the IC50 at Kv1.6 was determined as 215 nM.
In the case of `CC[C@H](C)[C@@H]1NC(=O)[C@H](C)NC(=O)[C@H](CCCCN)NC(=O)[C@H](CC(C)C)NC(=O)[C@@H]2CSSC[C@@H](C(=O)N[C@@H](Cc3ccc(O)cc3)C(=O)N3CCC[C@H]3C(=O)N[C@@H](CCCNC(=N)N)C(=O)O)NC(=O)[C@H](CCCCN)NC(=O)[C@@H]3CSSC[C@H](NC(=O)[C@H](CCC(=O)O)NC(=O)[C@H](C(C)C)NC(=O)[C@H](CO)NC(=O)[C@H](C)NC(=O)[C@H](CO)NC(=O)[C@@H](NC(=O)[C@H](CCCNC(=N)N)NC(=O)[C@H](CCSC)NC(=O)[C@H](CC(=O)O)NC(=O)[C@H](CCSC)NC(=O)[C@@H](N)CCC(N)=O)CSSC[C@H](NC(=O)[C@H](CCCCN)NC(=O)CNC(=O)[C@H](Cc4ccccc4)NC(=O)[C@H]([C@@H](C)CC)NC(=O)[C@H](CO)NC(=O)CNC1=O)C(=O)N[C@@H](CCSC)C(=O)N[C@@H](CC(N)=O)C(=O)N[C@@H](CCCCN)C(=O)N[C@@H](CCCCN)C(=O)N3)C(=O)N[C@@H](CCCCN)C(=O)N[C@@H](CCC(N)=O)C(=O)N[C@@H](CCCCN)C(=O)N2` [Compound 1] (H-QMDMRCSASVECKQKCLKAIGSIFGKCMNKKCKCYPR-OH; disulfide 6-27, 12-32, 16-34), the IC50 in assay [1] was 0.24 nM; in assay [2], 0.09 nM; on Kv1.1 it was above 3000 nM; at Rat whole blood, at most 1 nM; at Kv1.2, 518 nM; at Kv1.3 it was 0.38 nM. For the same molecule, the IC50 at Kv1.6 is above 3000 nM. In addition, the “Selectivity Kv1.1/Kv1.3” value at Kv1.1 was above 7900. Also, the “Selectivity Kv1.6/Kv1.3” value on Kv1.6 is reported as above 7900.
Take `CC[C@H](C)[C@@H]1NC(=O)[C@H](C)NC(=O)[C@H](CCCCN)NC(=O)[C@H](CC(C)C)NC(=O)[C@@H]2CSSC[C@@H](C(=O)N[C@@H](Cc3ccc(O)cc3)C(=O)N3CCC[C@H]3C(=O)N[C@@H](CCCNC(=N)N)C(N)=O)NC(=O)[C@H](CCCCN)NC(=O)[C@@H]3CSSC[C@H](NC(=O)[C@H](CCC(=O)O)NC(=O)[C@H](C(C)C)NC(=O)[C@H](CO)NC(=O)[C@H](C)NC(=O)[C@H](CO)NC(=O)[C@@H](NC(=O)[C@H](CCCNC(=N)N)NC(=O)[C@H](CCSC)NC(=O)[C@H](CC(=O)O)NC(=O)[C@H](CCSC)NC(=O)[C@@H](N)CC(N)=O)CSSC[C@H](NC(=O)[C@H](CCCCN)NC(=O)CNC(=O)[C@H](Cc4ccccc4)NC(=O)[C@H]([C@@H](C)CC)NC(=O)[C@H](CO)NC(=O)CNC1=O)C(=O)N[C@@H](CCSC)C(=O)N[C@@H](CC(N)=O)C(=O)N[C@@H](CCCCN)C(=O)N[C@@H](CCCCN)C(=O)N3)C(=O)N[C@@H](CCCCN)C(=O)N[C@@H](C(C)C)C(=O)N[C@@H](CCCCN)C(=O)N2` [Compound 17] (H-NMDMRCSASVECKVKCLKAIGSIFGKCMNKKCKCYPR-NH2; disulfide 6-27, 12-32, 16-34): the IC50 in assay [1] is 0.14 nM; in [3] it was 0.4 nM; on Kv1.1, above 3000 nM; at Rat whole blood it was at most 1 nM; at Kv1.2 it was 66 nM; on Kv1.3 it was 0.42 nM. Besides, the IC50 at Kv1.6 came out at 912 nM. Further, the “Selectivity Kv1.1/Kv1.3” value on Kv1.1 is above 7200.
Regarding `CCCC[C@@H]1NC(=O)[C@@H]2CSSC[C@H](NC(=O)[C@H](CCCNC(=N)N)NC(=O)[C@H](CCCC)NC(=O)[C@H](CC(=O)O)NC(=O)[C@H](CCCC)NC(=O)[C@@H](N)CC(N)=O)C(=O)N[C@@H](CO)C(=O)N[C@@H](C)C(=O)N[C@@H](CO)C(=O)N[C@@H](C(C)C)C(=O)N[C@@H](CCC(=O)O)C(=O)N[C@H]3CSSC[C@H](NC(=O)[C@H](CCCCN)NC(=O)[C@H](CCCCN)NC(=O)[C@H](CC(N)=O)NC1=O)C(=O)N[C@@H](CCCCN)C(=O)N[C@H](C(=O)N[C@@H](Cc1ccc(O)cc1)C(=O)N1CCC[C@H]1C(=O)N[C@@H](CCCNC(=N)N)C(N)=O)CSSC[C@H](NC(=O)[C@H](CO)NC(=O)[C@H](CCC(N)=O)NC(=O)[C@H](CCCCN)NC3=O)C(=O)N[C@@H](CC(C)C)C(=O)N[C@@H](CCCCN)C(=O)N[C@@H](C)C(=O)N[C@@H]([C@@H](C)CC)C(=O)NCC(=O)N[C@@H](CO)C(=O)N[C@@H]([C@@H](C)CC)C(=O)N[C@@H](Cc1ccccc1)C(=O)NCC(=O)N[C@@H](CCCCN)C(=O)N2` [Compound 48] (H-N[Nle]D[Nle]RCSASVECKQSCLKAIGSIFGKC[Nle]NKKCKCYPR-NH2; disulfide 6-27, 12-32, 16-34), the IC50 was 0.14 nM in assay [1]; 0.07 nM in assay [2]; above 3000 nM at Kv1.1; at most 1 nM against Rat whole blood; above 3000 nM on Kv1.2; 0.37 nM at Kv1.3. Also, the IC50 at Kv1.6 was above 3000 nM. Further, the “Selectivity Kv1.1/Kv1.3” value at Kv1.1 is reported as above 8200. The “Selectivity Kv1.2/Kv1.3” value on Kv1.2 (ratio IC50[Kv1.2]/IC50[Kv1.3]) is recorded as above 8200. Besides, the “Selectivity Kv1.6/Kv1.3” value at Kv1.6 was above 8200.
As for `CCCC[C@H](NC(=O)[C@@H]1CCCN1)C(=O)N[C@@H](CC(=O)O)C(=O)N[C@@H](CCCC)C(=O)N[C@@H](CCCNC(=N)N)C(=O)N[C@H]1CSSC[C@@H]2NC(=O)[C@H](CCCCN)NC(=O)CNC(=O)[C@H](Cc3ccccc3)NC(=O)[C@H]([C@@H](C)CC)NC(=O)[C@H](CO)NC(=O)CNC(=O)[C@H]([C@@H](C)CC)NC(=O)[C@H](C)NC(=O)[C@H](CCCCN)NC(=O)[C@H](CC(C)C)NC(=O)[C@@H]3CSSC[C@@H](C(=O)N[C@@H](Cc4ccc(O)cc4)C(=O)N4CCC[C@H]4C(=O)N[C@@H](CCCNC(=N)N)C(N)=O)NC(=O)[C@H](CCCCN)NC(=O)[C@H](CSSC[C@H](NC(=O)[C@H](CCC(=O)O)NC(=O)[C@H](C(C)C)NC(=O)[C@H](CO)NC(=O)[C@H](C)NC(=O)[C@H](CO)NC1=O)C(=O)N[C@@H](CCCCN)C(=O)N[C@@H](CCC(N)=O)C(=O)N[C@@H](CCCCN)C(=O)N3)NC(=O)[C@H](CCCCN)NC(=O)[C@H](CCCCN)NC(=O)[C@H](CC(N)=O)NC(=O)[C@H](CCCC)NC2=O` [Compound 41] (H-P[Nle]D[Nle]RCSASVECKQKCLKAIGSIFGKC[Nle]NKKCKCYPR-NH2; disulfide 6-27, 12-32, 16-34), the “% inhibition of ear thickness (AUC of Δ ear thickness 0-48 hours)” value in assay [4] (Exp #1, Kv1.3 blocker 70 nmol/kg SC 24 hrs prior to KLH challenge) is 46.9 (+/−10.9) %; in [4] (Exp #2, Kv1.3 blocker 70 nmol/kg SC 24 hrs prior to KLH challenge), 27.7 (+/−11.5) %; in assay [4] (Exp #3, Kv1.3 blocker 50 nmol/kg SC 24 hrs prior to KLH challenge), 22.2 (+/−11.1) %; in assay [4] (Exp #4, Kv1.3 blocker 100 nmol/kg SC 24 hrs prior to KLH challenge), 41.9 (+/−12.5) %. The IC50 was 0.15 nM in [1]; 0.03 nM in [2]; above 3000 nM on Kv1.1; at most 1 nM against Rat whole blood; 939 nM at Kv1.2; 0.18 nM at Kv1.3. For the same molecule, at Kv1.6, the IC50 is above 3000 nM. On Kv1.1, the “Selectivity Kv1.1/Kv1.3” value is above 17100. At Kv1.6, the “Selectivity Kv1.6/Kv1.3” value is given as above 17100.
